# In PMC4553520, “Laboratory and Simulated Field Bioassays to Evaluate Larvicidal Activity of Pinus densiflora Hydrodistillate, Its Constituents and Structurally Related Compounds against Aedes albopictus, Aedes aegypti and Culex pipiens pallens in Relation to Their Inhibitory Effects on Acetylcholinesterase Activity” (Insects, 2013):
# Legend:
# [1] = target: acetylcholinesterase (AChE) extracted from the heads of larval Cx. p. pallens (Culex pipiens pallens, UniProt Q86GC8); experiment: AChE inhibition assay, Cx. p. pallens; format: biochemical; conditions: in vitro
# Sequence of acetylcholinesterase (AChE) extracted from the heads of larval Cx. p. pallens (Q86GC8 37-702): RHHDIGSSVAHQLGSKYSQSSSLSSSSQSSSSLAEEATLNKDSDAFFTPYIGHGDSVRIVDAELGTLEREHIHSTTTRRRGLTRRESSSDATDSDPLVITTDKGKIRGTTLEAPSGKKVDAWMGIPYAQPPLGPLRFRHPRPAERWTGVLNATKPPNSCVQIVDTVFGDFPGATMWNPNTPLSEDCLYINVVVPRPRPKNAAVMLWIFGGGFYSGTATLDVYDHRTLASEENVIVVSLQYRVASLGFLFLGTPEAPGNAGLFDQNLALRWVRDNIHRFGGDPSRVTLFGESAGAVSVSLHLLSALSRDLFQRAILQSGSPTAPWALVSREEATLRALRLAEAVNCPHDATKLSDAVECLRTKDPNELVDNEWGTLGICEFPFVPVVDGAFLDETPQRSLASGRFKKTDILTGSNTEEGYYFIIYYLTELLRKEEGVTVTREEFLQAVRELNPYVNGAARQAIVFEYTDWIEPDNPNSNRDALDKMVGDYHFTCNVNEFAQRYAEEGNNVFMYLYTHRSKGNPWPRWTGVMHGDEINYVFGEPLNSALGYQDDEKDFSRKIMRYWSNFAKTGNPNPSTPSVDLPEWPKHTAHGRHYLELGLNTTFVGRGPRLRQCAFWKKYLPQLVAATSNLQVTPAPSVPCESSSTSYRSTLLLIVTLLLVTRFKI
# Protocol: (§1) For each species, larvae frozen at −20 °C were decapitated and 100 heads were homogenized in 5 mL of ice-cold 0.1 M sodium phosphate buffer (pH 8.0), using a Teflon glass tissue homogenizer. The homogenate was centrifuged at 10,000 × g at 4 °C for 20 min. The supernatant was filtered by a 0.22 µm-Millex-GV filter (Millipore, Cork, Ireland) and was used as the AChE preparation. Protein concentrations were determined by the Bradford dye method using BSA as the standard. A microplate AChE assay was carried out following the method of Moores et al. adapted from Ellman et al.. The reaction mixture consisted of 80 µL of the crude enzyme preparation, 10 µL of 7.5 mM DTNB in phosphate buffer (pH 7.0) and 100 µL of the selected test compounds of various concentrations in 2.5% acetone. The reaction mixture was incubated at 30 °C for 5 min and 10 µL of 6.25 mM ATChI was then added to the mixture. The absorbance was recorded at 414 nm, using a Molecular Devices VersaMax microplate reader (Sunnyvale, CA, USA). All AChE inhibition assays were repeated three times in triplicates.
# (§2) Concentration-mortality data were subjected to probit analysis using SAS [20]. […] Furthermore, for the compounds tested in AChE inhibition assays, a correlation analysis between their LC50 values and IC50 values was conducted using SAS [20].
# [2] = system: early third-instar larvae of Ae. aegypti; experiment: Direct-contact mortality bioassay, Ae. aegypti larvae; conditions: early third-instar larvae, 24 h exposure, direct contact
# Protocol: (§3) Direct-contact mortality bioassays were employed to evaluate the toxicity of all compounds, using early third-instar larvae of each mosquito species. Each compound was dissolved in methanol, and then further diluted in distilled water containing Triton X-100 (20 µL/L). Groups of 20 mosquito larvae of each species were put into separate paper cups (270 mL), each containing different compound solutions (250 mL). The toxicity of each compound was determined by repeating this experimental procedure with different concentrations, ranging from 5 to 200 mg/L. Temephos and fenthion served as standard references and were similarly formulated as well. Controls contained only methanol-Triton X-100 carrier solution in distilled water.
# (§4) Both treated and control larvae were kept under the same conditions as those used for colony maintenance. […] Due to certain constraints arising from the number of available larvae, all necessary bioassays could not be conducted simultaneously and thus, treatments were conducted over a period of time, with a separate control treatment included each time. Freshly prepared compound solutions were used for each round of bioassays. All bioassays were repeated three times.
# as §2
# [3] = target: acetylcholinesterase (AChE) extracted from the heads of larval Ae. aegypti (Aedes aegypti, UniProt Q6A2E2); experiment: AChE inhibition assay, Ae. aegypti; format: biochemical; conditions: in vitro
# Sequence of acetylcholinesterase (AChE) extracted from the heads of larval Ae. aegypti (Q6A2E2 37-679): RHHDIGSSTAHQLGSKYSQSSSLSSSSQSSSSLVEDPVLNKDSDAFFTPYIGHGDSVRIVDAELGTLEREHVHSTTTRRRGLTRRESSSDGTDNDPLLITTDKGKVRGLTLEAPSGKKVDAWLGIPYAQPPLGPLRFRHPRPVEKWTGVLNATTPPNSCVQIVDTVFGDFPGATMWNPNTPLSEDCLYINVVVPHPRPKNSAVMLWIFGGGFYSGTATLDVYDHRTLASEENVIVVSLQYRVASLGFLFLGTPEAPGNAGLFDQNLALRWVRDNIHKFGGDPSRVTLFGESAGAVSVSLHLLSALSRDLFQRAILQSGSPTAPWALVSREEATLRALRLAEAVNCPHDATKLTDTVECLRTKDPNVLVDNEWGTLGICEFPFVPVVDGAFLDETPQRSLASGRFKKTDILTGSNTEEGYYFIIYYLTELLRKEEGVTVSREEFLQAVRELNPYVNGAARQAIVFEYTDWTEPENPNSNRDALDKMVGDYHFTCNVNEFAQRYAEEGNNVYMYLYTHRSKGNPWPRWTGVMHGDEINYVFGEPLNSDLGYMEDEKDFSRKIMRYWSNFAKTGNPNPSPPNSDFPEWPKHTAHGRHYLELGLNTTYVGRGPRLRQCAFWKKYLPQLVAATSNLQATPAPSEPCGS
# Protocol: as §1, §2
# [4] = system: early third-instar larvae of Ae. albopictus; experiment: Direct-contact mortality bioassay, Ae. albopictus larvae; conditions: early third-instar larvae, 24 h exposure, direct contact
# Protocol: as §3, §4, §2
# [5] = target: acetylcholinesterase (AChE) extracted from the heads of larval Ae. albopictus (Aedes albopictus, UniProt Q2PGF2); experiment: AChE inhibition assay, Ae. albopictus; format: biochemical; conditions: in vitro
# Sequence of acetylcholinesterase (AChE) extracted from the heads of larval Ae. albopictus (Q2PGF2 37-680): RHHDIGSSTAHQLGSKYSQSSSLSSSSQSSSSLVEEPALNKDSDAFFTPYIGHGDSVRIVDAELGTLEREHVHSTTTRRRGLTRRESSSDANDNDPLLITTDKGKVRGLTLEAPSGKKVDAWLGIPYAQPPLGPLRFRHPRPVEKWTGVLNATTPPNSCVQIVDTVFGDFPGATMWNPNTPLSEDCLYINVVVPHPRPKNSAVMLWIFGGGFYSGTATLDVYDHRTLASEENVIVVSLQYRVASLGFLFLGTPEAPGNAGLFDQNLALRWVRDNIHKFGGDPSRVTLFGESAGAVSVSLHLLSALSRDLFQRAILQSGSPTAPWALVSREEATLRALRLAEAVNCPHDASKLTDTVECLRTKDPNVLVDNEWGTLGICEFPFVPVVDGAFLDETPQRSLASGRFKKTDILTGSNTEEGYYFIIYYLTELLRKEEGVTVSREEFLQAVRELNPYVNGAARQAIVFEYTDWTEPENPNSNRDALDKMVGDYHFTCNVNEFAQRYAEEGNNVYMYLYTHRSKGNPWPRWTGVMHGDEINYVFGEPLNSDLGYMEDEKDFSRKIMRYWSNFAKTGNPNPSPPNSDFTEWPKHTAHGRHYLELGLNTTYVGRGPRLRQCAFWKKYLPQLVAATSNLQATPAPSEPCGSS
# Protocol: as §1, §2
# [6] = system: early third-instar larvae of Cx. p. pallens; experiment: Direct-contact mortality bioassay, laboratory-reared Cx. p. pallens larvae; conditions: laboratory-reared early third-instar larvae, 24 h exposure, direct contact
# Protocol: as §3, §4, §2
Molecule,IC50 [1],"LC50 (Ae. aegypti), mg/L (95% CL) [2]",IC50 [3],"LC50 (Ae. albopictus), mg/L (95% CL) [4]",IC50 [5],"LC50 (Cx p. pallens), mg/L (95% CL) [6]"
C/C1=C\CC/C(C)=C/CC(C)(C)/C=C/C1 [α-humulene],62.3 mM,>150 mg/L,58.1 mM,>150 mg/L,47.6 mM,>150 mg/L
(−)-myrtenal,31.6 mM,>150 mg/L,34 mM,137.86 (119.15–173.91) mg/L,23.7 mM,139.61 (122.92–169.77) mg/L
